Data on 21 compounds can be found in patent US9181230B2, “Morpholine compounds and uses thereof” (Hoffmann-La Roche Inc., priority 2013, dated 2015).

pKd: −log10 of the molar value. Counter-ions that a name gives are not always drawn.

Chain of rat TAAR1 (Q923Y9 whole entry): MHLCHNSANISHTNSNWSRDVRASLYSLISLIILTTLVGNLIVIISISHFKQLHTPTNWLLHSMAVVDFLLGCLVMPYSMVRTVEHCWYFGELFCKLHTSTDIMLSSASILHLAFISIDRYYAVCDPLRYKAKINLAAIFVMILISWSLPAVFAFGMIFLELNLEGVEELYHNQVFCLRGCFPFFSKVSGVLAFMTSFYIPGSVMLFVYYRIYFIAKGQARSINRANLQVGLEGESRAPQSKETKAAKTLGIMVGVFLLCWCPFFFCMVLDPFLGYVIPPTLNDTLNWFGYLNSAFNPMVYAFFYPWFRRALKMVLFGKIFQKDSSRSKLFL

The first assay concerns the target rat TAAR1 (Rattus norvegicus (Rat), UniProt Q923Y9). The experiment in a line: Radioligand binding assay on rat TAAR1. Particulars: rat TAAR1, membranes of HEK-293 cells, second value of the cell pair mouse/rat. As to the method: (§1) For the construction of expression plasmids the coding sequences of human, rat and mouse TAAR 1 were amplified from genomic DNA essentially as described by Lindemann et al.. The Expand High Fidelity PCR System (Roche Diagnostics) was used with 1.5 mM Mg^2+ and purified PCR products were cloned into pCR2.1-TOPO cloning vector (Invitrogen) following the instructions of the manufacturer. PCR products were subcloned into the pIRESneo2 vector (BD Clontech, Palo Alto, Calif.), and expression vectors were sequence verified before introduction in cell lines.
(§2) HEK293 cells (ATCC # CRL-1573) were cultured essentially as described by Lindemann et al. (2005). For the generation of stably transfected cell lines HEK293 cells were transfected with the pIRESneo2 expression plasmids containing the TAAR coding sequences (described above) with Lipofectamine 2000 (Invitrogen) according to the instructions of the manufacturer, and 24 hrs post transfection the culture medium was supplemented with 1 mg/ml G418 (Sigma, Buchs, Switzerland). After a culture period of about 10 d clones were isolated, expanded and tested for responsiveness to trace amines (all compounds purchased from Sigma) with the cAMP Biotrak Enzyme immunoassay (EIA) System (Amersham) following the non-acetylation EIA procedure provided by the manufacturer.
(B) Radioligand Binding Assay on Rat TAAR1
(§3) Membrane Preparation and Radioligand Binding.
(§4) HEK-293 cells stably expressing rat TAAR1 were maintained at 37° C. and 5% CO2 in DMEM high glucose medium, containing fetal calf serum (10%, heat inactivated for 30 min at 56° C.), penicillin/streptomycin (1%), and 375 μg/ml geneticin (Gibco). Cells were released from culture flasks using trypsin/EDTA, harvested, washed twice with ice-cold PBS (without Ca^2+ and Mg^2+), pelleted at 1,000 rpm for 5 min at 4° C., frozen and stored at −80° C. Frozen pellets were suspended in 20 ml HEPES-NaOH (20 mM, pH 7.4) containing 10 mM EDTA and homogenized with a Polytron (PT 6000, Kinematica) at 14,000 rpm for 20 s. The homogenate was centrifuged at 48,000×g for 30 min at 4° C. Subsequently, the supernatant was removed and discarded, and the pellet resuspended in 20 ml HEPES-NaOH (20 mM, pH 7.4) containing 0.1 mM EDTA using the Polytron (20 s at 14,000 rpm). This procedure was repeated and the final pellet resuspended in HEPES-NaOH containing 0.1 mM EDTA and homogenized using the Polytron. Typically, aliquots of 2 ml membrane portions were stored at −80° C. With each new membrane batch the dissociation constant (Kd) was determined via a saturation curve. […] Nonspecific binding was defined as the amount of ^3[H]-(S)-4-[(ethyl-phenyl-amino)-methyl]-4,5-dihydro-oxazol-2-ylamine bound in the presence of 10 μM unlabeled ligand. All compounds were tested at a broad range of concentrations (10 pM to 10 μM) in duplicates. […] The 96 deep well plates were incubated for 1 hr at 4° C. Incubations were terminated by rapid filtration through Unifilter-96 plates (Packard Instrument Company) and glass filters GF/C (Perkin Elmer) presoaked for 1 hr in polyethylenimine (0.3%) and washed 3 times with 1 ml of cold binding buffer. After addition of 45 μl of Microscint 40 (PerkinElmer) the Unifilter-96 plate was sealed and after 1 hr the ratioactivity counted using a TopCount Microplate Scintillation Counter (Packard Instrument Company).
As a reminder, the Ki is a measure of affinity in units of concentration, obtained from inhibition or displacement. `O=C(Nc1n[nH]c2cc(C3CNCCO3)ccc12)c1ccc(F)cc1` (stereo not drawn) [Example 21, 4-Fluoro-N-(6-(morpholin-2-yl)-1H-indazol-3-yl)benzamide hydrochloride] registered a Ki of 0.895 µM.
Consider `Fc1ccc(-n2cc(-c3ccc([C@@H]4CNCCO4)cc3)cn2)cc1` [Example 26, (R)-2-(4-(1-(4-Fluorophenyl)-1H-pyrazol-4-yl)phenyl)morpholine hydrochloride], for which the Ki was found to be 0.0122 µM.
Consider `Fc1ccc(-c2cc(-c3ccc(C4CNCCO4)cc3)n[nH]2)cc1` (stereo not drawn) [Example 4, 2-(4-(5-(4-Fluorophenyl)-1H-pyrazol-3-yl)phenyl)morpholine hydrochloride], for which the Ki was 0.0059 µM.
Consider `N#Cc1cccc(-c2cc(-c3ccc(C4CNCCO4)cc3)n[nH]2)c1` (stereo not drawn) [Example 12, 3-[5-(4-Morpholin-2-yl-phenyl)-2H-pyrazol-3-yl]-benzonitrile hydrochloride], for which the affinity, expressed as Ki, was 0.0615 µM.
Regarding `Clc1ccc(-c2cc(-c3ccc([C@H]4CNCCO4)cc3)n[nH]2)cn1` [Example 37, (S)-2-{4-[5-(6-Chloro-pyridin-3-yl)-1H-pyrazol-3-yl]-phenyl}-morpholine hydrochloride], affinity was put at a Ki of 0.304 µM.
`FC(F)(F)c1ccc(-c2nc3ccc([C@@H]4CNCCO4)cc3o2)cn1` [Example 53, (R)-6-(Morpholin-2-yl)-2-(6-(trifluoromethyl)pyridin-3-yl)benzo[d]oxazole hydrochloride]: the Ki was determined as 0.226 µM.
Still for that read-out and setting: as for `N#Cc1ccc(-c2cc(-c3ccc(C4CNCCO4)cc3)n[nH]2)cc1` (stereo not drawn) [Example 6, 4-(3-(4-(Morpholin-2-yl)phenyl)-1H-pyrazol-5-yl)benzonitrile hydrochloride], the figure is 0.0335 µM.
`Fc1ccc(-c2cc(-c3ccc([C@H]4CNCCO4)cc3F)n[nH]2)cc1` [Example 40, (S)-2-(3-Fluoro-4-(5-(4-fluorophenyl)-1H-pyrazol-3-yl)phenyl)morpholine hydrochloride] came in with a Ki of 0.0155 µM.
With `Fc1ccc(-c2cc(-c3ccc([C@@H]4CNCCO4)cc3F)n[nH]2)cc1` [Example 41, (R)-2-(3-Fluoro-4-(5-(4-fluorophenyl)-1H-pyrazol-3-yl)phenyl)morpholine hydrochloride], the Ki worked out at 0.0043 µM.
Compound `Clc1ccc(-c2cc(-c3ccc(C4CNCCO4)cc3)n[nH]2)cn1` (stereo not drawn) [Example 5, 2-(4-(5-(6-Chloropyridin-3-yl)-1H-pyrazol-3-yl)phenyl)morpholine hydrochloride] came in with a Ki of 0.0631 µM.
In turn, `Fc1ccc(-c2cc(-c3ccc([C@@H]4CNCCO4)cc3)n[nH]2)cc1` [Example 31, (R)-2-(4-(5-(4-Fluorophenyl)-1H-pyrazol-3-yl)phenyl)morpholine hydrochloride] had a Ki of 0.0036 µM.
For `Clc1ccc(-c2cc(-c3ccc([C@@H]4CNCCO4)cc3)n[nH]2)cn1` [Example 38, (R)-2-{4-[5-(6-Chloro-pyridin-3-yl)-1H-pyrazol-3-yl]-phenyl}-morpholine hydrochloride], the Ki is 0.0257 µM.
On to `Fc1ccc(-c2nc(-c3ccc([C@H]4CNCCO4)cc3)n[nH]2)cc1` [Example 20, (S)-2-(4-(5-(4-Fluorophenyl)-1H-1,2,4-triazol-3-yl)phenyl)morpholine hydrochloride], for which the Ki came to 0.0779 µM.
Still for that read-out and setting: as for `Fc1ccc(-c2nnc(-c3ccc([C@@H]4CNCCO4)cc3)o2)cc1` [Example 34, (R)-2-(4-(5-(4-Fluorophenyl)-1,3,4-oxadiazol-2-yl)phenyl)morpholine hydrochloride], the figure is 0.156 µM.
In turn, `Fc1ccc(-n2cc(-c3ccc([C@H]4CNCCO4)cc3)cn2)cc1` [Example 19, (S)-2-(4-(1-(4-Fluorophenyl)-1H-pyrazol-4-yl)phenyl)morpholine hydrochloride] displayed a Ki of 0.0669 µM.
The compound `Fc1ccc(-c2nnc(-c3ccc([C@H]4CNCCO4)cc3)o2)cc1` [Example 17, (S)-2-(4-(5-(4-Fluorophenyl)-1,3,4-oxadiazol-2-yl)phenyl)morpholine hydrochloride] yielded a Ki of 0.229 µM.
With `Clc1cccc(-c2cc(-c3ccc([C@H]4CNCCO4)cc3)n[nH]2)c1` [Example 9, (S)-2-(4-(5-(3-Chlorophenyl)-1H-pyrazol-3-yl)phenyl)morpholine hydrochloride], the Ki turned out to be 0.0021 µM.
The same measure, in the same setting: as for `FC(F)(F)c1cnc2[nH]c3ccc([C@H]4CNCCO4)cc3c2c1` [Example 46, (S)-2-(3-(Trifluoromethyl)-9H-pyrido[2,3-b]indol-6-yl)morpholine hydrochloride], the figure is 0.0698 µM.

Still in this assay, the particulars now being: rat TAAR1, membranes of HEK-293 cells, second value of the cell pair mouse/rat; hydrochloride.
`FC(F)(F)c1cnc2[nH]c3ccc([C@@H]4CNCCO4)cc3c2c1` [Example 50, (R)-2-(3-(Trifluoromethyl)-9H-pyrido[2,3-b]indol-6-yl)morpholine hydrochloride] registered a Ki of 0.0303 µM.
The compound `FC(F)(F)c1cnc2[nH]c3ccc([C@@H]4CNCCO4)cc3c2c1` [Example 48, (R)-2-(3-(Trifluoromethyl)-9H-pyrido[2,3-b]indol-6-yl)morpholine hydrochloride] came in with a Ki of 0.0639 µM.

Staying with this assay, now noted: rat TAAR1, saturation curve, usual value per membrane batch; read-out: dissociation constant (Kd) of the radioligand.
In general, pKd refers to the Kd on a negative log10 scale, so that one unit is a factor of ten. Turning to `CCN(C[C@H]1COC(N)=N1)c1ccccc1` [^3[H]-(S)-4-[(ethyl-phenyl-amino)-methyl]-4,5-dihydro-oxazol-2-ylamine, reference compound], the pKd is roughly 8.64.

Another assay deals with mouse TAAR1 (Mus musculus (Mouse), UniProt Q923Y8). The assay is described as follows: Radioligand binding assay on mouse TAAR1. To be noted: mouse TAAR1, membranes of HEK-293 cells, first value of the cell pair mouse/rat. As to the method: as §1, §2
Chain of mouse TAAR1 (Q923Y8 whole entry): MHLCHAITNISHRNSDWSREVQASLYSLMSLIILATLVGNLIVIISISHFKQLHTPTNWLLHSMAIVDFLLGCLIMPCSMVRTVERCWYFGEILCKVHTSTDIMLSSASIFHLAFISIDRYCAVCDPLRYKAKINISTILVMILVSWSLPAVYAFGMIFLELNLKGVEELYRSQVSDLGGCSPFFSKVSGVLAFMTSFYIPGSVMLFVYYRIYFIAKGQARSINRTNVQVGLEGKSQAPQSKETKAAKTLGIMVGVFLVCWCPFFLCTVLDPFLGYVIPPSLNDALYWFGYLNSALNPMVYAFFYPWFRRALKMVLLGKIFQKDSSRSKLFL
(A) Radioligand Binding Assay on Mouse TAAR1
as §3
as §4, with “expressing mouse” for “expressing rat”
`O=C(Nc1n[nH]c2cc(C3CNCCO3)ccc12)c1ccc(F)cc1` (stereo not drawn) [Example 21, 4-Fluoro-N-(6-(morpholin-2-yl)-1H-indazol-3-yl)benzamide hydrochloride]: the affinity corresponds to a Ki of 0.0617 µM.
The compound `Fc1ccc(-n2cc(-c3ccc([C@@H]4CNCCO4)cc3)cn2)cc1` [Example 26, (R)-2-(4-(1-(4-Fluorophenyl)-1H-pyrazol-4-yl)phenyl)morpholine hydrochloride] returned a Ki of 0.0006 µM.
Regarding `Fc1ccc(-c2cc(-c3ccc(C4CNCCO4)cc3)n[nH]2)cc1` (stereo not drawn) [Example 4, 2-(4-(5-(4-Fluorophenyl)-1H-pyrazol-3-yl)phenyl)morpholine hydrochloride], the affinity, expressed as Ki, was 0.0012 µM.
Take `N#Cc1cccc(-c2cc(-c3ccc(C4CNCCO4)cc3)n[nH]2)c1` (stereo not drawn) [Example 12, 3-[5-(4-Morpholin-2-yl-phenyl)-2H-pyrazol-3-yl]-benzonitrile hydrochloride]: the Ki was 0.0005 µM.
The compound `Clc1ccc(-c2cc(-c3ccc([C@H]4CNCCO4)cc3)n[nH]2)cn1` [Example 37, (S)-2-{4-[5-(6-Chloro-pyridin-3-yl)-1H-pyrazol-3-yl]-phenyl}-morpholine hydrochloride] registered an inhibitory constant (Ki) of 0.004 µM.
For the compound `FC(F)(F)c1ccc(-c2nc3ccc([C@@H]4CNCCO4)cc3o2)cn1` [Example 53, (R)-6-(Morpholin-2-yl)-2-(6-(trifluoromethyl)pyridin-3-yl)benzo[d]oxazole hydrochloride], the Ki was found to be 0.0463 µM.
The compound `N#Cc1ccc(-c2cc(-c3ccc(C4CNCCO4)cc3)n[nH]2)cc1` (stereo not drawn) [Example 6, 4-(3-(4-(Morpholin-2-yl)phenyl)-1H-pyrazol-5-yl)benzonitrile hydrochloride] came in with a Ki of 0.0019 µM.
In the case of `Fc1ccc(-c2cc(-c3ccc([C@H]4CNCCO4)cc3F)n[nH]2)cc1` [Example 40, (S)-2-(3-Fluoro-4-(5-(4-fluorophenyl)-1H-pyrazol-3-yl)phenyl)morpholine hydrochloride], the Ki is 0.0012 µM.
`Fc1ccc(-c2cc(-c3ccc([C@@H]4CNCCO4)cc3F)n[nH]2)cc1` [Example 41, (R)-2-(3-Fluoro-4-(5-(4-fluorophenyl)-1H-pyrazol-3-yl)phenyl)morpholine hydrochloride] gave a Ki of 0.0011 µM.
`Clc1ccc(-c2cc(-c3ccc(C4CNCCO4)cc3)n[nH]2)cn1` (stereo not drawn) [Example 5, 2-(4-(5-(6-Chloropyridin-3-yl)-1H-pyrazol-3-yl)phenyl)morpholine hydrochloride] came in with a Ki of 0.0044 µM.
Same read-out and setting: as for `Fc1ccc(-c2cc(-c3ccc([C@@H]4CNCCO4)cc3)n[nH]2)cc1` [Example 31, (R)-2-(4-(5-(4-Fluorophenyl)-1H-pyrazol-3-yl)phenyl)morpholine hydrochloride], the figure is 0.001 µM; as for `Clc1ccc(-c2cc(-c3ccc([C@@H]4CNCCO4)cc3)n[nH]2)cn1` [Example 38, (R)-2-{4-[5-(6-Chloro-pyridin-3-yl)-1H-pyrazol-3-yl]-phenyl}-morpholine hydrochloride], 0.0027 µM; as for `Fc1ccc(-c2nc(-c3ccc([C@H]4CNCCO4)cc3)n[nH]2)cc1` [Example 20, (S)-2-(4-(5-(4-Fluorophenyl)-1H-1,2,4-triazol-3-yl)phenyl)morpholine hydrochloride], 0.0012 µM.
`Fc1ccc(-c2nnc(-c3ccc([C@@H]4CNCCO4)cc3)o2)cc1` [Example 34, (R)-2-(4-(5-(4-Fluorophenyl)-1,3,4-oxadiazol-2-yl)phenyl)morpholine hydrochloride] registered a Ki of 0.004 µM.
On the same count and under the same terms, as for `Fc1ccc(-n2cc(-c3ccc([C@H]4CNCCO4)cc3)cn2)cc1` [Example 19, (S)-2-(4-(1-(4-Fluorophenyl)-1H-pyrazol-4-yl)phenyl)morpholine hydrochloride], the figure is 0.0015 µM; as for `Fc1ccc(-c2nnc(-c3ccc([C@H]4CNCCO4)cc3)o2)cc1` [Example 17, (S)-2-(4-(5-(4-Fluorophenyl)-1,3,4-oxadiazol-2-yl)phenyl)morpholine hydrochloride], 0.0032 µM.
Compound `Clc1cccc(-c2cc(-c3ccc([C@H]4CNCCO4)cc3)n[nH]2)c1` [Example 9, (S)-2-(4-(5-(3-Chlorophenyl)-1H-pyrazol-3-yl)phenyl)morpholine hydrochloride] returned a Ki of 0.0004 µM.
In turn, `FC(F)(F)c1cnc2[nH]c3ccc([C@H]4CNCCO4)cc3c2c1` [Example 46, (S)-2-(3-(Trifluoromethyl)-9H-pyrido[2,3-b]indol-6-yl)morpholine hydrochloride] showed a Ki of 0.0023 µM.

Staying with this assay, now noted: mouse TAAR1, membranes of HEK-293 cells, first value of the cell pair mouse/rat; hydrochloride.
Regarding `FC(F)(F)c1cnc2[nH]c3ccc([C@@H]4CNCCO4)cc3c2c1` [Example 50, (R)-2-(3-(Trifluoromethyl)-9H-pyrido[2,3-b]indol-6-yl)morpholine hydrochloride], the inhibition constant Ki stood at 0.0082 µM.
Same read-out and setting: as for `FC(F)(F)c1cnc2[nH]c3ccc([C@@H]4CNCCO4)cc3c2c1` [Example 48, (R)-2-(3-(Trifluoromethyl)-9H-pyrido[2,3-b]indol-6-yl)morpholine hydrochloride], the figure is 0.0081 µM.

Still in this assay, the particulars now being: mouse TAAR1, saturation curve, usual value per membrane batch; read-out: dissociation constant (Kd) of the radioligand.
On to `CCN(C[C@H]1COC(N)=N1)c1ccccc1` [^3[H]-(S)-4-[(ethyl-phenyl-amino)-methyl]-4,5-dihydro-oxazol-2-ylamine, reference compound], for which the pKd was roughly 9.15.
